Data from patent US6998422B2, “Lipid peroxide-lowering compositions” (Sankyo Company, Limited, priority 2000, dated 2006).

Test system: blood lipid peroxides
Test: Blood lipid peroxide levels in serum of beagle dogs after oral dosing for 11 days (Yagi's method, fluorometer)
Conditions: relative ratio against averaged pre-dosing level (100), oral capsule once daily, pravastatin 2 mg/kg, mean of 5 dogs
Description: Beagle dogs aged 5 months were purchased from Covance Research Products Inc. and used after 1 month of quarantine and acclimatisation breeding.
The required amounts of pravastatin or each component of the combination drug calculated from the body weight of each dog were weighed and filled in a gelatin capsule purchased from TORPAC Inc. Capsules filled with pravastatin were stocked in a refrigerator and those filled with combination drugs stocked at room temperature until use.
The combination drugs were filled in identical gelatin capsules.
Pravastatin or combination drug capsules were forcibly orally administered to each of the test animals once daily between 9:00 and 12:30. Animals were fasted for 2 or 3 hr prior to administration of the capsules.
The administration period was 11 successive days.
Blood (10 mL) was collected from the superficial radial vein 3 or 4 days prior to administration (−3 or −4 days in the first week prior to capsule administration) and 4 and 8 days after administration of the capsule. Animals were fasted for approximately 18 hr prior to blood collection. Collected blood was placed in a test tube and left at room temperature for 0.5–1 hr and centrifuged (3,000 rpm, for 10 min). The obtained serum was used for assays of blood lipid peroxides according to Yagi's methods.
A fluorometer (Hitachi, Ltd., F3000) was used for assay of the lipid peroxides.
The averaged value in each group was obtained from 5 animals a group.

Structure (SMILES) | Blood Lipid Peroxide Levels after administration, 4 days (pantethine 300 mg/kg) | Blood Lipid Peroxide Levels after administration, 8 days (pantethine 300 mg/kg) | Blood Lipid Peroxide Levels after administration, 4 days (taurine 1,000 mg/kg) | Blood Lipid Peroxide Levels after administration, 8 days (taurine 1,000 mg/kg)
CC[C@H](C)C(=O)O[C@H]1C[C@H](O)C=C2C=C[C@H](C)[C@H](CC[C@@H](O)C[C@@H](O)CC(=O)O)[C@H]21 [Pravastatin alone, (+)-(3R,5R)-3,5-dihydroxy-7-[(1S,2S,6S,8S,8aR)-6-hydroxy-2-methyl-8-[(S)-2-methylbutyryloxy]-1,2,6,7,8,8a-hexahydro-1-naphthyl]heptanoate] | 110.8 | 116.2 | 110.8 | 116.2
NCCS(=O)(=O)O [Taurine alone, Taurine] |  |  | 95.8 | 93.8
